Measurements from PubChem BioAssay (NCI).
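A five-concentration, 48-hour dose response in 96-well plates underlies each endpoint, interpolated linearly between surrounding concentrations. TGI marks complete inhibition of growth.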

How the values were obtained:
Test in all cases: NCI tumour cell line growth inhibition, 48 h
SW-620 colon = tested on: SW-620 colon
DLD-1 colon = tested on: DLD-1 colon
HOP-62 NSCLC = tested on: HOP-62 NSCLC
CAKI-1 renal = tested on: CAKI-1 renal
SNB-78 CNS = tested on: SNB-78 CNS
DMS 273 small cell lung = tested on: DMS 273 small cell lung
A549 NSCLC = tested on: A549 NSCLC
SK-MEL-5 melanoma = tested on: SK-MEL-5 melanoma
HOP-92 NSCLC = tested on: HOP-92 NSCLC
ACHN renal = tested on: ACHN renal
K-562 leukemia = tested on: K-562 leukemia
NCI-H460 lung = tested on: NCI-H460 lung
SK-MEL-28 melanoma = tested on: SK-MEL-28 melanoma
A498 renal = tested on: A498 renal
SK-OV-3 ovarian = tested on: SK-OV-3 ovarian
HCT-116 colon = tested on: HCT-116 colon
SF-539 CNS = tested on: SF-539 CNS
NCI-H23 lung = tested on: NCI-H23 lung
CCRF-CEM leukemia = tested on: CCRF-CEM leukemia
OVCAR-4 ovarian = tested on: OVCAR-4 ovarian
SF-295 CNS = tested on: SF-295 CNS
RXF 393 renal = tested on: RXF 393 renal
HT29 colon = tested on: HT29 colon
HOP-18 NSCLC = tested on: HOP-18 NSCLC
UACC-257 melanoma = tested on: UACC-257 melanoma
SNB-75 CNS = tested on: SNB-75 CNS
DMS 114 small cell lung = tested on: DMS 114 small cell lung
MALME-3M melanoma = tested on: MALME-3M melanoma
U251 CNS = tested on: U251 CNS
UACC-62 melanoma = tested on: UACC-62 melanoma
LOX IMVI melanoma = tested on: LOX IMVI melanoma
KM20L2 colon = tested on: KM20L2 colon
OVCAR-3 ovarian = tested on: OVCAR-3 ovarian
COLO 205 colon = tested on: COLO 205 colon
IGROV1 ovarian = tested on: IGROV1 ovarian
LXFL 529 NSCLC = tested on: LXFL 529 NSCLC
786-0 renal = tested on: 786-0 renal
M19-MEL melanoma = tested on: M19-MEL melanoma
HL-60(TB) leukemia = tested on: HL-60(TB) leukemia
M14 melanoma = tested on: M14 melanoma
RPMI-8226 leukemia = tested on: RPMI-8226 leukemia
SN12C renal = tested on: SN12C renal
NCI-H226 lung = tested on: NCI-H226 lung
SF-268 CNS = tested on: SF-268 CNS
OVCAR-8 ovarian = tested on: OVCAR-8 ovarian
MOLT-4 leukemia = tested on: MOLT-4 leukemia
UO-31 renal = tested on: UO-31 renal
OVCAR-5 ovarian = tested on: OVCAR-5 ovarian
HCT-15 colon = tested on: HCT-15 colon
SK-MEL-2 melanoma = tested on: SK-MEL-2 melanoma
KM12 colon = tested on: KM12 colon
TK-10 renal = tested on: TK-10 renal
NCI-H522 lung = tested on: NCI-H522 lung
HCC-2998 colon = tested on: HCC-2998 colon
SNB-19 CNS = tested on: SNB-19 CNS
XF 498 CNS = tested on: XF 498 CNS
EKVX NSCLC = tested on: EKVX NSCLC
SR leukemia = tested on: SR leukemia

## O=C(NCCNCCO)N/N=C/c1cccc([N+](=O)[O-])c1
SW-620 colon
  TGI: > 100 µM
DLD-1 colon
  TGI: > 100 µM
HOP-62 NSCLC
  TGI: > 100 µM
CAKI-1 renal
  TGI: > 100 µM
SNB-78 CNS
  TGI: > 100 µM
DMS 273 small cell lung
  TGI: > 100 µM
A549 NSCLC
  TGI: > 100 µM
SK-MEL-5 melanoma
  TGI: > 100 µM
HOP-92 NSCLC
  TGI: > 100 µM
ACHN renal
  TGI: > 100 µM
K-562 leukemia
  TGI: > 100 µM
NCI-H460 lung
  TGI: > 100 µM
SK-MEL-28 melanoma
  TGI: > 100 µM
A498 renal
  TGI: > 100 µM
SK-OV-3 ovarian
  TGI: > 100 µM
HCT-116 colon
  TGI: > 100 µM
SF-539 CNS
  TGI: > 100 µM
NCI-H23 lung
  TGI: > 100 µM
CCRF-CEM leukemia
  TGI: > 100 µM
OVCAR-4 ovarian
  TGI: > 100 µM
SF-295 CNS
  TGI: > 100 µM
RXF 393 renal
  TGI: > 100 µM
HT29 colon
  TGI: > 100 µM
HOP-18 NSCLC
  TGI: > 100 µM
UACC-257 melanoma
  TGI: > 100 µM
SNB-75 CNS
  TGI: > 100 µM
DMS 114 small cell lung
  TGI: > 100 µM
MALME-3M melanoma
  TGI: > 100 µM
U251 CNS
  TGI: > 100 µM
UACC-62 melanoma
  TGI: > 100 µM
LOX IMVI melanoma
  TGI: > 100 µM
KM20L2 colon
  TGI: > 100 µM
OVCAR-3 ovarian
  TGI: > 100 µM
COLO 205 colon
  TGI: > 100 µM
IGROV1 ovarian
  TGI: > 100 µM
LXFL 529 NSCLC
  TGI: > 100 µM
786-0 renal
  TGI: > 100 µM
M19-MEL melanoma
  TGI: > 100 µM
HL-60(TB) leukemia
  TGI: > 100 µM
M14 melanoma
  TGI: > 100 µM
RPMI-8226 leukemia
  TGI: > 100 µM
SN12C renal
  TGI: > 100 µM
NCI-H226 lung
  TGI: > 100 µM
SF-268 CNS
  TGI: > 100 µM
OVCAR-8 ovarian
  TGI: > 100 µM
MOLT-4 leukemia
  TGI: > 100 µM
UO-31 renal
  TGI: > 100 µM
OVCAR-5 ovarian
  TGI: > 100 µM
HCT-15 colon
  TGI: > 100 µM
SK-MEL-2 melanoma
  TGI: > 100 µM
KM12 colon
  TGI: > 100 µM
TK-10 renal
  TGI: > 100 µM
NCI-H522 lung
  TGI: > 100 µM

## COc1ccc(CC(=O)c2cc(OC)c(OC)cc2C)cc1OC
SW-620 colon
  TGI: > 100 µM
HCC-2998 colon
  TGI: > 100 µM
DLD-1 colon
  TGI: > 100 µM
HOP-62 NSCLC
  TGI: > 100 µM
CAKI-1 renal
  TGI: > 100 µM
SNB-78 CNS
  TGI: > 100 µM
A549 NSCLC
  TGI: > 100 µM
SK-MEL-5 melanoma
  TGI: > 100 µM
ACHN renal
  TGI: > 100 µM
K-562 leukemia
  TGI: > 100 µM
SNB-19 CNS
  TGI: > 100 µM
NCI-H460 lung
  TGI: > 100 µM
SK-MEL-28 melanoma
  TGI: > 100 µM
A498 renal
  TGI: > 100 µM
SK-OV-3 ovarian
  TGI: > 100 µM
NCI-H23 lung
  TGI: > 100 µM
CCRF-CEM leukemia
  TGI: > 100 µM
OVCAR-4 ovarian
  TGI: > 100 µM
SF-295 CNS
  TGI: > 100 µM
HT29 colon
  TGI: > 100 µM
UACC-257 melanoma
  TGI: 75.8 µM
SNB-75 CNS
  TGI: > 100 µM
DMS 114 small cell lung
  TGI: > 100 µM
MALME-3M melanoma
  TGI: > 100 µM
U251 CNS
  TGI: > 100 µM
UACC-62 melanoma
  TGI: > 100 µM
XF 498 CNS
  TGI: > 100 µM
KM20L2 colon
  TGI: > 100 µM
OVCAR-3 ovarian
  TGI: > 100 µM
COLO 205 colon
  TGI: > 100 µM
IGROV1 ovarian
  TGI: > 100 µM
LXFL 529 NSCLC
  TGI: > 100 µM
786-0 renal
  TGI: > 100 µM
M19-MEL melanoma
  TGI: > 100 µM
M14 melanoma
  TGI: > 100 µM
RPMI-8226 leukemia
  TGI: > 100 µM
SN12C renal
  TGI: > 100 µM
SF-268 CNS
  TGI: > 100 µM
OVCAR-8 ovarian
  TGI: > 100 µM
MOLT-4 leukemia
  TGI: > 100 µM
UO-31 renal
  TGI: > 100 µM
EKVX NSCLC
  TGI: > 100 µM
OVCAR-5 ovarian
  TGI: > 100 µM
HCT-15 colon
  TGI: > 100 µM
SK-MEL-2 melanoma
  TGI: > 100 µM
KM12 colon
  TGI: > 100 µM
TK-10 renal
  TGI: > 100 µM
NCI-H522 lung
  TGI: > 100 µM

## Cc1ccc(-c2cc(-c3ccco3)nc(N)n2)o1
SW-620 colon
  TGI: > 100 µM
HOP-62 NSCLC
  TGI: > 100 µM
SNB-78 CNS
  TGI: > 100 µM
DMS 273 small cell lung
  TGI: > 100 µM
A549 NSCLC
  TGI: > 100 µM
SK-MEL-5 melanoma
  TGI: > 100 µM
ACHN renal
  TGI: > 100 µM
K-562 leukemia
  TGI: > 100 µM
SNB-19 CNS
  TGI: > 100 µM
NCI-H460 lung
  TGI: > 100 µM
SK-MEL-28 melanoma
  TGI: > 100 µM
HCT-116 colon
  TGI: > 100 µM
SF-539 CNS
  TGI: > 100 µM
NCI-H23 lung
  TGI: > 100 µM
CCRF-CEM leukemia
  TGI: > 100 µM
OVCAR-4 ovarian
  TGI: > 100 µM
SF-295 CNS
  TGI: > 100 µM
RXF 393 renal
  TGI: > 100 µM
HT29 colon
  TGI: > 100 µM
SNB-75 CNS
  TGI: > 100 µM
MALME-3M melanoma
  TGI: > 100 µM
UACC-62 melanoma
  TGI: > 100 µM
LOX IMVI melanoma
  TGI: > 100 µM
XF 498 CNS
  TGI: > 100 µM
KM20L2 colon
  TGI: > 100 µM
SR leukemia
  TGI: > 100 µM
OVCAR-3 ovarian
  TGI: > 100 µM
COLO 205 colon
  TGI: > 100 µM
IGROV1 ovarian
  TGI: > 100 µM
LXFL 529 NSCLC
  TGI: > 100 µM
786-0 renal
  TGI: > 100 µM
HL-60(TB) leukemia
  TGI: > 100 µM
M14 melanoma
  TGI: > 100 µM
RPMI-8226 leukemia
  TGI: > 100 µM
SN12C renal
  TGI: > 100 µM
NCI-H226 lung
  TGI: > 100 µM
SF-268 CNS
  TGI: > 100 µM
OVCAR-8 ovarian
  TGI: > 100 µM
MOLT-4 leukemia
  TGI: > 100 µM
UO-31 renal
  TGI: > 100 µM
EKVX NSCLC
  TGI: > 100 µM
OVCAR-5 ovarian
  TGI: > 100 µM
HCT-15 colon
  TGI: > 100 µM
SK-MEL-2 melanoma
  TGI: > 100 µM
KM12 colon
  TGI: > 100 µM
TK-10 renal
  TGI: > 100 µM
NCI-H522 lung
  TGI: > 100 µM

## CCCCN(CC)C(=O)C(=O)C1C(=O)Nc2ccccc2S1=O (configuration not stated)
SW-620 colon
  TGI: > 100 µM
HCC-2998 colon
  TGI: > 100 µM
DLD-1 colon
  TGI: > 100 µM
HOP-62 NSCLC
  TGI: > 100 µM
CAKI-1 renal
  TGI: > 100 µM
SNB-78 CNS
  TGI: > 100 µM
DMS 273 small cell lung
  TGI: > 100 µM
A549 NSCLC
  TGI: > 100 µM
SK-MEL-5 melanoma
  TGI: > 100 µM
HOP-92 NSCLC
  TGI: > 100 µM
ACHN renal
  TGI: > 100 µM
K-562 leukemia
  TGI: > 100 µM
SNB-19 CNS
  TGI: > 100 µM
NCI-H460 lung
  TGI: > 100 µM
SK-MEL-28 melanoma
  TGI: > 100 µM
A498 renal
  TGI: > 100 µM
SK-OV-3 ovarian
  TGI: > 100 µM
HCT-116 colon
  TGI: > 100 µM
SF-539 CNS
  TGI: > 100 µM
NCI-H23 lung
  TGI: > 100 µM
CCRF-CEM leukemia
  TGI: > 100 µM
OVCAR-4 ovarian
  TGI: > 100 µM
RXF 393 renal
  TGI: > 100 µM
HT29 colon
  TGI: > 100 µM
HOP-18 NSCLC
  TGI: > 100 µM
UACC-257 melanoma
  TGI: > 100 µM
SNB-75 CNS
  TGI: > 100 µM
DMS 114 small cell lung
  TGI: > 100 µM
MALME-3M melanoma
  TGI: > 100 µM
U251 CNS
  TGI: > 100 µM
UACC-62 melanoma
  TGI: > 100 µM
LOX IMVI melanoma
  TGI: > 100 µM
KM20L2 colon
  TGI: > 100 µM
OVCAR-3 ovarian
  TGI: > 100 µM
COLO 205 colon
  TGI: > 100 µM
IGROV1 ovarian
  TGI: > 100 µM
LXFL 529 NSCLC
  TGI: > 100 µM
786-0 renal
  TGI: > 100 µM
M19-MEL melanoma
  TGI: > 100 µM
M14 melanoma
  TGI: > 100 µM
RPMI-8226 leukemia
  TGI: > 100 µM
SN12C renal
  TGI: > 100 µM
NCI-H226 lung
  TGI: > 100 µM
SF-268 CNS
  TGI: > 100 µM
OVCAR-8 ovarian
  TGI: > 100 µM
MOLT-4 leukemia
  TGI: > 100 µM
UO-31 renal
  TGI: > 100 µM
EKVX NSCLC
  TGI: > 100 µM
OVCAR-5 ovarian
  TGI: > 100 µM
HCT-15 colon
  TGI: > 100 µM
SK-MEL-2 melanoma
  TGI: > 100 µM
KM12 colon
  TGI: > 100 µM
TK-10 renal
  TGI: > 100 µM
NCI-H522 lung
  TGI: > 100 µM
